In patent US10039756B2, “Reducing memory loss in mammals suffering from alzheimer's disease” (The Penn State Research Foundation, priority 2013, dated 2018):

Tests used:
GAT-3 = target: T1, GAT-3 (Mus musculus, UniProt P31650); test: Tonic GABA current, whole-cell patch clamp in dentate granule cells of hippocampal slices, GAT-3 block; format: cell-based; conditions: 50 μM; AD (5xFAD) dentate granule cells
T1 construct: from tissue; host or cells: mouse hippocampal slices (5xFAD and WT littermates), dentate gyrus
T1 sequence (P31650 1-627): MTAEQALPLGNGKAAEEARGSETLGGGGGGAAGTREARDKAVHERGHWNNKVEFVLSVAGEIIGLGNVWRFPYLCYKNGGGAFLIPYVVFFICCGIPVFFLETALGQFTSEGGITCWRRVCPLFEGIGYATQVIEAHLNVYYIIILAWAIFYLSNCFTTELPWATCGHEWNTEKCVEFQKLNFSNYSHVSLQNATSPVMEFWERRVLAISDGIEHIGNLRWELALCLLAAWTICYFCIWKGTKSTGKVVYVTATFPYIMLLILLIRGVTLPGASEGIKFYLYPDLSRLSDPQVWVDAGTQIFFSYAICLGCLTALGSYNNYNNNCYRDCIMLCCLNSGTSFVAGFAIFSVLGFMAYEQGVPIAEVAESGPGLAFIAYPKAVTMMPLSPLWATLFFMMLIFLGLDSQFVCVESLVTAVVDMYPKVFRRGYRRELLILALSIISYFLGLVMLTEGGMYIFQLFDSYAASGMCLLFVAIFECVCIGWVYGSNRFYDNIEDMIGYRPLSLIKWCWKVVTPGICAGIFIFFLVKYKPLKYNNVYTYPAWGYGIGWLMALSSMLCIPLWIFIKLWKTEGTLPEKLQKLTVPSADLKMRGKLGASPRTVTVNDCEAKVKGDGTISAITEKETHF
Procedure: (§1) Mice were anesthetized with 2.5% Avertin. After decapitation, brains were rapidly dissected out and placed in ice-cold cutting solution containing: 79 mM NaCl, 80 mM sucrose, 26 mM NaHCO3, 10 mM glucose, 2.5 mM KCl, 1.25 mM NaH2PO4, 7 mM MgSO4, and 0.5 mM CaCl2 for tonic current recordings. The cutting solution for field EPSP recordings contained: 230 mM sucrose, 26 mM NaHCO3, 20 mM glucose, 2.5 mM KCl, 1.25 mM NaH2PO4, 10 mM MgSO4, and 0.5 mM CaCl2. Both solutions were bubbled with 95% O2/5% CO2. […]
(§2) Whole-cell voltage clamp recordings were performed on dentate gyrus granule cells using a pipette solution containing: 135 mM CsCl, 5 mM Na-phosphocreatine, 10 mM HEPES, 5 mM EGTA, 4 mM MgATP, 5 mM QX-314, and 0.5 mM Na2GTP (pH 7.3 adjusted with CsOH, 280-290 mOsm/L). […] Data was acquired using pClamp 9 software (Molecular Devices; sampled at 10 kHz and filtered at 1 kHz), and analyzed with Clampfit 9.0 software (Molecular Devices). Field excitatory postsynaptic potentials (fEPSPs) were recorded with glass electrodes filled with 1 M NaCl and 25 mM HEPES (pH 7.3), and were evoked every 20 seconds with a parallel bipolar tungsten electrode (MicroProbes, USA), which was placed at medial perforant path in the dentate gyrus. […]

LTP in DG = test: Long-term potentiation (LTP) in dentate gyrus, hippocampal slice field EPSP recordings; format: cell-based, mouse; conditions: 50 μM; 5xFAD dentate granule cells
Procedure: as §1, §2

5xFAD mice = test: Y-maze spontaneous alternation task; format: in vivo, mouse; conditions: 50 μmol kg-1, i.p., once per day for one week, p<0.05
Procedure: L-655,708 was dissolved at 1 mg/mL in DMSO, and frozen in storage aliquots. The working solution was diluted 10 times in normal saline solution. […] The last injection was administrated 30 minutes before behavioral test.
Spontaneous alternation performance was tested as described elsewhere (Oakley et al., J. Neurosci., 26(40):10129-10140 (2006)). […] It allows the assessment of hippocampus-dependent spatial working memory. Each mouse was placed in the center of a symmetrical Y-maze and was allowed to explore freely through the maze during an 8 minute session. The first two minutes were not included for data analysis because mice were exploring new environment. The total number and the sequence of arm entries in the last 6 minutes were recorded and analyzed. Arm entry was defined as the hind paws of the mice had been completely placed in the arm. Analysis was done blind. The percentage of alternation is the number of triads containing entries into all three arms divided by the maximum possible alternations (the total number of arms entered minus 2)×100.
A behavioral analysis was conducted to test the effect of enhanced tonic inhibition on the cognitive function of 5xFAD animals. […] Therefore, it was concluded that the abnormal tonic inhibition in DG is an important contributing factor toward the learning and memory deficit in AD.

human GAT-1 polypeptide = human GAT-1 polypeptide (Homo sapiens, UniProt P30531); conditions: cited from earlier work
human GAT-1 polypeptide, sequence (P30531 whole entry): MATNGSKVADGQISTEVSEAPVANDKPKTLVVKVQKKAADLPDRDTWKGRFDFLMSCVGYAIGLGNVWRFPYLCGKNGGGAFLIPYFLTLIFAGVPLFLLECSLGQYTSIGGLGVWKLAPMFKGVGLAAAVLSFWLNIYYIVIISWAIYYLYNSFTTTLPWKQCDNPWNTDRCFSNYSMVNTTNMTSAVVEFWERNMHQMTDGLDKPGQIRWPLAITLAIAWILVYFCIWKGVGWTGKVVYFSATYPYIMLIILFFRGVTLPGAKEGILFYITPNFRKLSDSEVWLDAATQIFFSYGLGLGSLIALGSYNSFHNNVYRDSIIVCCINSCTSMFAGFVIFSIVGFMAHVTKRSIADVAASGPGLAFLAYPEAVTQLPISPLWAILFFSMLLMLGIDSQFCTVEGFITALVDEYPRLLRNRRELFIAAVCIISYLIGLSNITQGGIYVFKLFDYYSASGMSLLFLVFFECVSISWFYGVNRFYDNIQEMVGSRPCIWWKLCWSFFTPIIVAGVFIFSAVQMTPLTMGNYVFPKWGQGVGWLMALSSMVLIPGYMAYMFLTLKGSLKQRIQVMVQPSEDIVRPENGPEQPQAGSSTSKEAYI

Compound: COc1ccc(C(OCCN2CCC[C@H](C(=O)O)C2)(c2ccc(OC)cc2)c2ccc(OC)cc2)cc1 [SNAP-5114, (S)-1-[2-[tris(4-methoxyphenyl)methoxy]ethyl]-3-piperidinecarboxylic acid]
- block of tonic GABA current (GAT-3): blocked the majority of the tonic GABA current
- effect on LTP impairment (LTP in DG): rescued the LTP impairment
- effect on memory deficit (spontaneous alternation) (5xFAD mice): rescued the memory deficit
- IC50 (human GAT-1 polypeptide): > 75 µM
